Measured values from the supplement of paper PMC10307832.

How the values were obtained:
Experiment in all cases: relative viability (nuclei count vs DMSO), 5 days (fraction); higher = more cells survive
NCI-H2023 = system: NCI-H2023
Procedure, shortened: (§1)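 Lung cancer cell lines were pin-tool dosed in 1536-well plates on the day after seeding, with either a lone drug or a fixed anchor-drug dose plus five library-drug doses (not always all listed) in √10 steps. Nuclei were counted on 4× images after 5 days. Relative viability is the ratio of treated-well to vehicle-well nuclei counts, with each value a median of duplicate plates.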

UMC-11 = system: UMC-11
Procedure, shortened: as §1

NCI-H1734 = system: NCI-H1734
Procedure, shortened: as §1

HCC-78 = system: HCC-78
Procedure, shortened: as §1

RERF-LC-KJ = system: RERF-LC-KJ
Procedure, shortened: as §1

NCI-H1793 = system: NCI-H1793
Procedure, shortened: as §1

NCI-H1792 = system: NCI-H1792
Procedure, shortened: as §1

NCI-H1395 = system: NCI-H1395
Procedure, shortened: as §1

NCI-H23 = system: NCI-H23
Procedure, shortened: as §1

NCI-H1437 = system: NCI-H1437
Procedure, shortened: as §1

NCI-H1915 = system: NCI-H1915
Procedure, shortened: as §1

SK-LU-1 = system: SK-LU-1
Procedure, shortened: as §1

NCI-H2405 = system: NCI-H2405
Procedure, shortened: as §1

LCLC-103H = system: LCLC-103H
Procedure, shortened: as §1

NCI-H661 = system: NCI-H661
Procedure, shortened: as §1

201T = system: 201T
Procedure, shortened: as §1

NCI-H1651 = system: NCI-H1651
Procedure, shortened: as §1

LOU-NH91 = system: LOU-NH91
Procedure, shortened: as §1

EMC-BAC-2 = system: EMC-BAC-2
Procedure, shortened: as §1

NCI-H1975 = system: NCI-H1975
Procedure, shortened: as §1

EPLC-272H = system: EPLC-272H
Procedure, shortened: as §1

ABC-1 = system: ABC-1
Procedure, shortened: as §1

NCI-H647 = system: NCI-H647
Procedure, shortened: as §1

`O=C(O)CCCCC(CCSCc1ccccc1)SCc1ccccc1` (stereo not given) [CPI-613] + COc1cccc2cc(-c3nc([C@H]4CC[C@H](C(=O)O)CC4)n4ncnc(N)c34)[nH]c12 [OSI-027] (partner 0.5 µM) gave a relative viability (NCI-H2023; first compound 5 µM) of 0.407, a relative viability (NCI-H2023; first compound 15.81 µM) of 0.303 and a relative viability (NCI-H2023; first compound 50 µM) of 0.29. For the same molecule, the relative viability (NCI-H2023; first compound 158.11 µM) was 0.0518, the relative viability (NCI-H2023; first compound 500 µM) was 0.0054 and the relative viability (UMC-11; first compound 5 µM) was 0.407. It also gave a relative viability (UMC-11; first compound 15.81 µM) of 0.369, a relative viability (UMC-11; first compound 50 µM) of 0.426 and a relative viability (UMC-11; first compound 158.11 µM) of 0.124. The relative viability (UMC-11; first compound 500 µM) was 0.118, the relative viability (NCI-H1734; first compound 5 µM) was 0.58 and the relative viability (NCI-H1734; first compound 15.81 µM) was 0.55. The relative viability (NCI-H1734; first compound 50 µM) was 0.571, the relative viability (NCI-H1734; first compound 158.11 µM) was 0.325 and the relative viability (NCI-H1734; first compound 500 µM) was 0.1. The relative viability (HCC-78; first compound 5 µM) was 0.351, the relative viability (HCC-78; first compound 15.81 µM) was 0.377 and the relative viability (HCC-78; first compound 50 µM) was 0.373. The relative viability (HCC-78; first compound 158.11 µM) was 0.351, the relative viability (HCC-78; first compound 500 µM) was 0.4 and the relative viability (RERF-LC-KJ; first compound 5 µM) was 0.553. For the same molecule, the relative viability (RERF-LC-KJ; first compound 15.81 µM) was 0.491, the relative viability (RERF-LC-KJ; first compound 50 µM) was 0.513 and the relative viability (RERF-LC-KJ; first compound 158.11 µM) was 0.114. It also gave a relative viability (RERF-LC-KJ; first compound 500 µM) of 0.0544, a relative viability (NCI-H1793; first compound 5 µM) of 0.277 and a relative viability (NCI-H1793; first compound 15.81 µM) of 0.241. For the same molecule, the relative viability (NCI-H1793; first compound 50 µM) was 0.245, the relative viability (NCI-H1793; first compound 158.11 µM) was 0.171 and the relative viability (NCI-H1793; first compound 500 µM) was 0.0629. The relative viability (NCI-H1792; first compound 5 µM) was 0.653, the relative viability (NCI-H1792; first compound 15.81 µM) was 0.65 and the relative viability (NCI-H1792; first compound 50 µM) was 0.693. The relative viability (NCI-H1792; first compound 158.11 µM) was 0.666, the relative viability (NCI-H1792; first compound 500 µM) was 0.614 and the relative viability (NCI-H1395; first compound 5 µM) was 0.67. The relative viability (NCI-H1395; first compound 15.81 µM) was 0.602, the relative viability (NCI-H1395; first compound 50 µM) was 0.668 and the relative viability (NCI-H1395; first compound 158.11 µM) was 0.694. The relative viability (NCI-H1395; first compound 500 µM) was 0.568, the relative viability (NCI-H23; first compound 5 µM) was 0.651 and the relative viability (NCI-H23; first compound 15.81 µM) was 0.531. It also gave a relative viability (NCI-H23; first compound 50 µM) of 0.62, a relative viability (NCI-H23; first compound 158.11 µM) of 0.263 and a relative viability (NCI-H23; first compound 500 µM) of 0.0292. The relative viability (NCI-H1437; first compound 5 µM) was 0.892, the relative viability (NCI-H1437; first compound 15.81 µM) was 0.814 and the relative viability (NCI-H1437; first compound 50 µM) was 0.818. For the same molecule, the relative viability (NCI-H1437; first compound 158.11 µM) was 0.245, the relative viability (NCI-H1437; first compound 500 µM) was 0.0279 and the relative viability (NCI-H1915; first compound 5 µM) was 0.557. For the same molecule, the relative viability (NCI-H1915; first compound 15.81 µM) was 0.538, the relative viability (NCI-H1915; first compound 50 µM) was 0.485 and the relative viability (NCI-H1915; first compound 158.11 µM) was 0.447. The relative viability (NCI-H1915; first compound 500 µM) was 0.001, the relative viability (SK-LU-1; first compound 5 µM) was 0.285 and the relative viability (SK-LU-1; first compound 15.81 µM) was 0.26. It also gave a relative viability (SK-LU-1; first compound 50 µM) of 0.296, a relative viability (SK-LU-1; first compound 158.11 µM) of 0.152 and a relative viability (SK-LU-1; first compound 500 µM) of 0.0346. It also gave a relative viability (NCI-H2405; first compound 5 µM) of 0.638, a relative viability (NCI-H2405; first compound 15.81 µM) of 0.582 and a relative viability (NCI-H2405; first compound 50 µM) of 0.588. The relative viability (NCI-H2405; first compound 158.11 µM) was 0.533, the relative viability (NCI-H2405; first compound 500 µM) was 0.513 and the relative viability (LCLC-103H; first compound 5 µM) was 0.424. For the same molecule, the relative viability (LCLC-103H; first compound 15.81 µM) was 0.428, the relative viability (LCLC-103H; first compound 50 µM) was 0.345 and the relative viability (LCLC-103H; first compound 158.11 µM) was 0.377. It also gave a relative viability (LCLC-103H; first compound 500 µM) of 0.317, a relative viability (NCI-H661; first compound 5 µM) of 0.684 and a relative viability (NCI-H661; first compound 15.81 µM) of 0.601. For the same molecule, the relative viability (NCI-H661; first compound 50 µM) was 0.597, the relative viability (NCI-H661; first compound 158.11 µM) was 0.413 and the relative viability (NCI-H661; first compound 500 µM) was 0.126. The relative viability (201T; first compound 5 µM) was 0.754, the relative viability (201T; first compound 15.81 µM) was 0.711 and the relative viability (201T; first compound 50 µM) was 0.606. For the same molecule, the relative viability (201T; first compound 158.11 µM) was 0.678, the relative viability (201T; first compound 500 µM) was 0.818 and the relative viability (NCI-H1651; first compound 5 µM) was 0.66. For the same molecule, the relative viability (NCI-H1651; first compound 15.81 µM) was 0.79, the relative viability (NCI-H1651; first compound 50 µM) was 0.616 and the relative viability (NCI-H1651; first compound 158.11 µM) was 0.333. It also gave a relative viability (NCI-H1651; first compound 500 µM) of 0.0775, a relative viability (LOU-NH91; first compound 5 µM) of 0.703 and a relative viability (LOU-NH91; first compound 15.81 µM) of 0.65. For the same molecule, the relative viability (LOU-NH91; first compound 50 µM) was 0.703, the relative viability (LOU-NH91; first compound 158.11 µM) was 0.686 and the relative viability (LOU-NH91; first compound 500 µM) was 0.672. The relative viability (EMC-BAC-2; first compound 5 µM) was 0.385, the relative viability (EMC-BAC-2; first compound 15.81 µM) was 0.334 and the relative viability (EMC-BAC-2; first compound 50 µM) was 0.337. For the same molecule, the relative viability (EMC-BAC-2; first compound 158.11 µM) was 0.181, the relative viability (EMC-BAC-2; first compound 500 µM) was 0.0272 and the relative viability (NCI-H1975; first compound 5 µM) was 0.693. It also gave a relative viability (NCI-H1975; first compound 15.81 µM) of 0.589, a relative viability (NCI-H1975; first compound 50 µM) of 0.741 and a relative viability (NCI-H1975; first compound 158.11 µM) of 0.245. The relative viability (NCI-H1975; first compound 500 µM) was 0.0526, the relative viability (EPLC-272H; first compound 5 µM) was 0.279 and the relative viability (EPLC-272H; first compound 15.81 µM) was 0.307. The relative viability (EPLC-272H; first compound 50 µM) was 0.263, the relative viability (EPLC-272H; first compound 158.11 µM) was 0.261 and the relative viability (EPLC-272H; first compound 500 µM) was 0.0195. It also gave a relative viability (ABC-1; first compound 5 µM) of 0.404, a relative viability (ABC-1; first compound 15.81 µM) of 0.443 and a relative viability (ABC-1; first compound 50 µM) of 0.49. It also gave a relative viability (ABC-1; first compound 158.11 µM) of 0.175, a relative viability (ABC-1; first compound 500 µM) of 0.167 and a relative viability (NCI-H647; first compound 5 µM) of 0.667. It also gave a relative viability (NCI-H647; first compound 15.81 µM) of 0.498, a relative viability (NCI-H647; first compound 50 µM) of 0.445 and a relative viability (NCI-H647; first compound 158.11 µM) of 0.147. It also gave a relative viability (NCI-H647; first compound 500 µM) of 0.0299.
